# Laboratory results as given in patent US20250109107A1, “AROMATIC RING-FUSED HETEROCYCLIC RING COMPOUND AS POTASSIUM CHANNEL REGULATOR, AND PREPARATION THEREFOR AND USE THEREOF” (Shanghai Zhimeng Biopharma, Inc., priority 2022, published 2025).
# Target: T1, KCNQ2 potassium channels (CHO-KCNQ2 cells) (Homo sapiens, UniProt O43526)
# T1 construct: expressed in transfected cells; host or cells: CHO cells stably expressing KCNQ2 (G418 selection in the culture medium)
# Assay: Potassium ion channel opener activity test (FDSS/μCELL detection, FluxOR thallium flux)
# Format: cell-based
# Conditions: for EC50: 8 concentrations 0.045-100 μM, 3 replicate wells; for Maximum agonist rate (%): highest test concentration 100 μM, ratio of 180 s
# Method: Example A1 Potassium Ion Channel Opener Activity Test (FDSS/p CELL Detection)
# Cell preparation: CHO-KCNQ2 cells were cultured in a 175 cm^2 culture flask, and when the cell density grew to 60˜80%, the culture medium was removed and the cells were washed once with 7 mL PBS (Phosphate Buffered Saline), and then 3 mL of 0.25% Trypsin was added for digestion. After completion of digestion, 7 mL of culture medium (90% DMEM/F12+10% FBS+500 μg/mL G418) was added to neutralize, and centrifuged at 800 rpm for 3 min; the supernatant was aspirated, then 5 mL of culture medium was added to resuspend the cells, and the cells were counted.
# Cell spreading: according to the cell counting results, the density was adjusted to 3×10^4 cells/well. After standing at room temperature for 30 minutes, the cells were placed in a CO2 incubator at 37° C. overnight, and incubated for 16-18 hours to reach a cell density of about 80%.
# Fluorescent dye incubation: Cell culture solution was discarded, 80 μL/well of loading buffer was added and the cells were incubated for 60 minutes at room temperature and protected from light.
# Compound incubation: Loading buffer was discarded, 80 μL/well of prepared compound solution was added, and the cells were incubated for 20 min at room temperature and protected from light.
# Fluorescence data acquisition: Real-time fluorescence signal recording was performed using an FDSS/pCELL instrument with an excitation wavelength of 480 nm and an emission wavelength of 540 nm, and the signal was recorded once per second. 10 seconds of the baseline was recorded, then 20 μL/well of stimulation buffer was added, and the recording was continued until the end of 180 seconds.
# Loading buffer: 10 mL/plate, prepared as follows:
# Stimulation buffer: 5 mL/plate, prepared as follows:
# The above buffers were obtained from a commercially available kit called FluxOR potassium ion channel assay.
# 20 mM stock solution of compound in DMSO was prepared, 10 μL of 20 mM compound stock solution was taken into 20 μL of DMSO solution, and a 3-fold serial dilution was performed to form 8 intermediate concentrations; then the intermediate concentrations of the compounds were taken respectively into test buffer, and a 200-fold dilution was performed to obtain the final concentration to be tested, and 80 μL of compound was taken and added to the assay plate.
# The highest test concentration was 100 μM, and there was a total of8 concentrations. i.e., 100, 33.33, 11.11, 3.70, 1.23, 0.41, 0.137, 0.045 μM, respectively, with 3 replicate wells for each concentration.
# The experimental data were analyzed by Excel 2007, GraphPad Prism 5.0 software, and the ratio of 180 s was counted to calculate the agonistic effect. The compound agonistic effect was calculated by the following equation: […]
# T1 sequence (O43526 whole entry): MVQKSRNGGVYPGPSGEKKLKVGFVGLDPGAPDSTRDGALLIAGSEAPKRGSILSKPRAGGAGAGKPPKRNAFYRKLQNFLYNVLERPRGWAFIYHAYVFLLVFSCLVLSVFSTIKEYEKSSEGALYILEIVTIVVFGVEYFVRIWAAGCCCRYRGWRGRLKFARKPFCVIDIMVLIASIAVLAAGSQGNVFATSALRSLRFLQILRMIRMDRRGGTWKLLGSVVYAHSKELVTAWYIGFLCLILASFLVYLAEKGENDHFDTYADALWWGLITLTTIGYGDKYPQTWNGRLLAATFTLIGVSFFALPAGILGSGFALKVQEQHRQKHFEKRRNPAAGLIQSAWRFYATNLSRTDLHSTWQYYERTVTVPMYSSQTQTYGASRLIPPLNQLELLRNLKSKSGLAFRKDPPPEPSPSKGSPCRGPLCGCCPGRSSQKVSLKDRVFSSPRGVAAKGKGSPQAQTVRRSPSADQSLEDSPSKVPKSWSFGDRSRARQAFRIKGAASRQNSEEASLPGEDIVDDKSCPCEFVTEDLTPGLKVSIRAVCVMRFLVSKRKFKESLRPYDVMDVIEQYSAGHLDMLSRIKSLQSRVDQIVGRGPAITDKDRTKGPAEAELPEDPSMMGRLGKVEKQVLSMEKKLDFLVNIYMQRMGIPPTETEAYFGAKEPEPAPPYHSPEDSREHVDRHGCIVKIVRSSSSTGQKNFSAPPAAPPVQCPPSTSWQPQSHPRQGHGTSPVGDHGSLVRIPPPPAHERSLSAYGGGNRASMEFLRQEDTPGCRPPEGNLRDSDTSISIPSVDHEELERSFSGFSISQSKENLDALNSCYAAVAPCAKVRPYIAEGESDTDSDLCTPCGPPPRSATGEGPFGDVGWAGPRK
EC50 [nM],Maximum agonist rate (%),Compound
59,38.96,Cc1cc2c(c(C)c1NC(=O)CC1(C)CC1)CN(c1ccc(C(F)(F)F)cc1)CC2 [Compound 3002]
400,36.30,Cc1cc2c(c(C)c1NC(=O)CC1(C)CC1)CN(c1ccc(F)cc1)CC2 [Compound 3001]
